Test results from ChEMBL document CHEMBL5154758, “Structure-Activity Relationship Study of Indolin-5-yl-cyclopropanamine Derivatives as Selective Lysine Specific Demethylase 1 (LSD1) Inhibitors” (J Med Chem, 2022).

Legend:
MV4-11 = assay: Antiproliferative activity against human MV4-11 cells assessed as inhibition of cell growth incubated for 240 hrs by MTS assay; format: functional, cell-based; details: MV4-11, 240 h
[1] = target: T1, Amine oxidase [flavin-containing] B (Homo sapiens, UniProt P27338); assay: biochemical
T1 sequence (P27338 whole entry): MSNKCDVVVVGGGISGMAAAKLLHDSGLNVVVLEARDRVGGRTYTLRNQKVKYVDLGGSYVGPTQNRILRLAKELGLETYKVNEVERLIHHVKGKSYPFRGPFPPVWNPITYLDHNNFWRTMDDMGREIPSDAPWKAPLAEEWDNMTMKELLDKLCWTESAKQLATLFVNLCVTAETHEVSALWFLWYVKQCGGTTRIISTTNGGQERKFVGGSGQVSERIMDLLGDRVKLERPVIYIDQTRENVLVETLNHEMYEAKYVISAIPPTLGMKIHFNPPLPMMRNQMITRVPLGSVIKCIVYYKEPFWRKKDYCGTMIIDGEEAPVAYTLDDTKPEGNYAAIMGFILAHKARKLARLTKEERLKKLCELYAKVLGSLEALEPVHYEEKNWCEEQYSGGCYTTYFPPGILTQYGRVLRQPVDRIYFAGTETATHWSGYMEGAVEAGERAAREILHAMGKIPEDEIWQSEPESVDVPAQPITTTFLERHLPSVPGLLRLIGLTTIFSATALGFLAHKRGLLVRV
Description: Inhibition of human recombinant MAO-B expressed in baculovirus infected BTI insect cells using luminogenic MAO substrate incubated for 1 hr by luciferin-based luminescence assay

[2] = target: T2, Amine oxidase [flavin-containing] A (Homo sapiens, UniProt P21397); assay: biochemical
T2 sequence (P21397 whole entry): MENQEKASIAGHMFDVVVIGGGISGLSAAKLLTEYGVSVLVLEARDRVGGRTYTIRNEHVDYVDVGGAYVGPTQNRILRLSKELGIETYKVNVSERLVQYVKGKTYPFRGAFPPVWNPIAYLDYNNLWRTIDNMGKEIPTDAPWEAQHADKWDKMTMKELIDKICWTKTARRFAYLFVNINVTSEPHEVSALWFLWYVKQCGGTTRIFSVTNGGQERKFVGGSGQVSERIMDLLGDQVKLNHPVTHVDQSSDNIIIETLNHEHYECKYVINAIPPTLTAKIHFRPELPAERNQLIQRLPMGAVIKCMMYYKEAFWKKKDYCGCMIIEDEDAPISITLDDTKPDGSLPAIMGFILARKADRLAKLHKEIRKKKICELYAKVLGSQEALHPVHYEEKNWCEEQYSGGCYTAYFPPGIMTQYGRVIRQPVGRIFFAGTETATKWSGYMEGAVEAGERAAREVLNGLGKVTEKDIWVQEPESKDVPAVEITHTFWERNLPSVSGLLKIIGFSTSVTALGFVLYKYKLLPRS
Description: Inhibition of human recombinant MAO-A expressed in baculovirus infected BTI insect cells using luminogenic MAO substrate incubated for 1 hr by luciferin-based luminescence assay

RPMI-8226 = assay: Antiproliferative activity against human RPMI-8226 cells assessed as inhibition of cell growth incubated for 240 hrs by MTS assay; format: functional, cell-based; details: RPMI-8226, 240 h

Row | IC50 (MV4-11) [µM] | IC50 [1] [µM] | IC50 [2] [µM] | IC50 (RPMI-8226) [µM] | Compound
1 | – | – | 8640 | – | O=S(=O)(N1CCc2cc(C3CC3NCC3CCNCC3)ccc21)C(F)(F)F (trans isomer)
2 | 2.52 | > 100 | > 100 | – | CCS(=O)(=O)N1CCc2cc(C3CC3NCC3CCNCC3)ccc21 (trans isomer)
3 | 2.39 | > 100 | > 100 | – | CS(=O)(=O)N1CCc2cc(C3CC3NCC3CCNCC3)ccc21 (centres undefined)

Further lines, the compound ahead of its results:

Row | Compound | IC50 (MV4-11) [µM] | IC50 [1] [µM] | IC50 [2] [µM] | IC50 (RPMI-8226) [µM]
4 | CCC(=O)N1CCc2cc(C3CC3NCC3CCNCC3)ccc21 (trans isomer) | 7.66 | > 100 | > 100 | –
5 | O=S(=O)(C1CCCCC1)N1CCc2cc(C3CC3NCC3CCNCC3)ccc21 (centres undefined) | – | > 100 | > 100 | –
6 | O=S(=O)(c1ccccc1)N1CCc2cc(C3CC3NCC3CCN(Cc4ccccc4)CC3)ccc21 (trans isomer) | – | > 100 | – | –
7 | O=C(Cc1ccccc1)N1CCc2cc(C3CC3NCC3CCNCC3)ccc21 (trans isomer) | – | > 100 | > 100 | –
8 | CCCC(=O)N1CCc2cc(C3CC3NCC3CCNCC3)ccc21 (centres undefined) | 18.8 | > 100 | > 100 | –
9 | O=S(=O)(c1ccccc1)N1CCc2cc(C3CC3NCCC3CCNCC3)ccc21 (trans isomer) | 1.21 | > 100 | > 100 | > 20
10 | CC1(CNC2CC2c2ccc3c(c2)CCN3S(=O)(=O)c2ccccc2)CCNCC1 (trans isomer) | – | > 100 | 100 | –
